Measurements: patent US11096865B2, “Preservative removal from eye drops” (TearClear Corp., priority 2019, dated 2021)

Experiment: 30 day drop test, API retention after dropper tip packed with OxPO
Assay type: physicochemical
Details: for API concentration in drops: tip packed with OxHDPE A-C 395, 125-250 μm, acid washed; for API concentration: Initial formulation
Method: To 60.0 g of ultrapure water was added 0.090 g hydroxyethyl cellulose (Natrosol 250H) and the solution was stirred overnight to dissolve. Subsequently, 0.176 g sodium citrate dihydrate and 0.960 g mannitol were added and the mixture was stirred until completely dissolved. 1.37 g Dorzolamide Hydrochloride, 0.420 g Timolol Maleate and 0.045 g of a 10% aqueous solution of BAK were added and incorporated. The pH was adjusted to 5.65 with 0.01N NaOH solution. The final nominal concentrations are reported below.
An empty dropper tip equipped with a 25 μm filter at the tip exit was packed with approximately […] of OxPO and the backing filter was attached to retain the OxPO packing in place. The weight of the OxPO packing was recorded. The packed tip was then inserted into the neck of an 8 ml dropper bottle containing 5 ml of the API/BAK test solution.
5 ml of the formulation described above containing nominally 5.0 mg/ml Timolol, 20.0 mg/ml Dorzolamide and 75 μg/ml BAK was loaded into six eyedropper bottles packed with OxHDPE (A-C 395, 125-250 μm, acid washed) as described above. Drops were obtained from each bottle twice a day (AM and PM 8 hours apart) and analyzed by HPLC for API and BAK.

## CCN[C@H]1C[C@H](C)S(=O)(=O)c2sc(S(N)(=O)=O)cc21 [Dorzolamide]
Day 1A
  API concentration in drops: 20.0 mg/mL
Day 1P
  API concentration in drops: 20.1 mg/mL
Day 2A
  API concentration in drops: 19.2 mg/mL
Day 2P
  API concentration in drops: 19.4 mg/mL
Day 3A
  API concentration in drops: 19.5 mg/mL
Day 3P
  API concentration in drops: 19.6 mg/mL
Day 4A
  API concentration in drops: 19.3 mg/mL
Day 4P
  API concentration in drops: 19.7 mg/mL
Day 5A
  API concentration in drops: 19.7 mg/mL
Day 5P
  API concentration in drops: 19.8 mg/mL
Day 6A
  API concentration in drops: 19.8 mg/mL
Day 6P
  API concentration in drops: 20.2 mg/mL
Day 7A
  API concentration in drops: 20.3 mg/mL
Day 7P
  API concentration in drops: 20.3 mg/mL
Day 8A
  API concentration in drops: 20.1 mg/mL
Day 8P
  API concentration in drops: 20.2 mg/mL
Day 9A
  API concentration in drops: 19.8 mg/mL
Day 9P
  API concentration in drops: 19.5 mg/mL
Day 10A
  API concentration in drops: 19.8 mg/mL
Day 10P
  API concentration in drops: 20.1 mg/mL
Day 11A
  API concentration in drops: 19.9 mg/mL
Day 11P
  API concentration in drops: 19.9 mg/mL
Day 12A
  API concentration in drops: 19.8 mg/mL
Day 12P
  API concentration in drops: 19.9 mg/mL
Day 13A
  API concentration in drops: 19.9 mg/mL
Day 13P
  API concentration in drops: 19.9 mg/mL
Day 14A
  API concentration in drops: 19.7 mg/mL
Day 14P
  API concentration in drops: 20.0 mg/mL
Day 15A
  API concentration in drops: 19.8 mg/mL
Day 15P
  API concentration in drops: 19.9 mg/mL
Day 16A
  API concentration in drops: 19.5 mg/mL
Day 16P
  API concentration in drops: 19.8 mg/mL
Day 17A
  API concentration in drops: 19.4 mg/mL
Day 17P
  API concentration in drops: 19.4 mg/mL
Day 18A
  API concentration in drops: 19.7 mg/mL
Day 18P
  API concentration in drops: 19.6 mg/mL
Day 19A
  API concentration in drops: 19.2 mg/mL
Day 19P
  API concentration in drops: 19.5 mg/mL
Day 20A
  API concentration in drops: 19.6 mg/mL
Day 20P
  API concentration in drops: 19.7 mg/mL
Day 21A
  API concentration in drops: 19.6 mg/mL
Day 21P
  API concentration in drops: 19.7 mg/mL
Day 22A
  API concentration in drops: 20.0 mg/mL
Day 22P
  API concentration in drops: 19.5 mg/mL
Day 23A
  API concentration in drops: 19.8 mg/mL
Day 23P
  API concentration in drops: 19.8 mg/mL
Day 24A
  API concentration in drops: 19.8 mg/mL
Day 24P
  API concentration in drops: 19.8 mg/mL
Day 25A
  API concentration in drops: 19.6 mg/mL
Day 25P
  API concentration in drops: 19.7 mg/mL
Day 26A
  API concentration in drops: 20.2 mg/mL
Day 26P
  API concentration in drops: 20.1 mg/mL
Day 27A
  API concentration in drops: 20.1 mg/mL
Day 27P
  API concentration in drops: 20.1 mg/mL
Day 28A
  API concentration in drops: 20.1 mg/mL
Day 28P
  API concentration in drops: 19.9 mg/mL
Day 29A
  API concentration in drops: 19.6 mg/mL
Day 29P
  API concentration in drops: 19.6 mg/mL
Day 30A
  API concentration in drops: 20.1 mg/mL
Day 30P
  API concentration in drops: 20.1 mg/mL
  API concentration: 21.0 (mg/ml)

## CC(C)(C)NC[C@H](O)COc1nsnc1N1CCOCC1 [Timolol]
Day 1A
  API concentration in drops: 4.93 mg/mL
Day 1P
  API concentration in drops: 4.91 mg/mL
Day 2A
  API concentration in drops: 4.51 mg/mL
Day 2P
  API concentration in drops: 4.64 mg/mL
Day 3A
  API concentration in drops: 4.60 mg/mL
Day 3P
  API concentration in drops: 4.65 mg/mL
Day 4A
  API concentration in drops: 4.59 mg/mL
Day 4P
  API concentration in drops: 4.72 mg/mL
Day 5A
  API concentration in drops: 4.68 mg/mL
Day 5P
  API concentration in drops: 4.78 mg/mL
Day 6A
  API concentration in drops: 4.76 mg/mL
Day 6P
  API concentration in drops: 4.90 mg/mL
Day 7A
  API concentration in drops: 4.86 mg/mL
Day 7P
  API concentration in drops: 4.91 mg/mL
Day 8A
  API concentration in drops: 4.85 mg/mL
Day 8P
  API concentration in drops: 4.89 mg/mL
Day 9A
  API concentration in drops: 4.84 mg/mL
Day 9P
  API concentration in drops: 4.87 mg/mL
Day 10A
  API concentration in drops: 4.89 mg/mL
Day 10P
  API concentration in drops: 4.90 mg/mL
Day 11A
  API concentration in drops: 4.89 mg/mL
Day 11P
  API concentration in drops: 4.96 mg/mL
Day 12A
  API concentration in drops: 4.86 mg/mL
Day 12P
  API concentration in drops: 4.95 mg/mL
Day 13A
  API concentration in drops: 4.89 mg/mL
Day 13P
  API concentration in drops: 4.93 mg/mL
Day 14A
  API concentration in drops: 4.86 mg/mL
Day 14P
  API concentration in drops: 4.97 mg/mL
Day 15A
  API concentration in drops: 4.87 mg/mL
Day 15P
  API concentration in drops: 4.93 mg/mL
Day 16A
  API concentration in drops: 4.90 mg/mL
Day 16P
  API concentration in drops: 5.01 mg/mL
Day 17A
  API concentration in drops: 4.90 mg/mL
Day 17P
  API concentration in drops: 4.97 mg/mL
Day 18A
  API concentration in drops: 4.98 mg/mL
Day 18P
  API concentration in drops: 4.97 mg/mL
Day 19A
  API concentration in drops: 4.87 mg/mL
Day 19P
  API concentration in drops: 4.98 mg/mL
Day 20A
  API concentration in drops: 4.99 mg/mL
Day 20P
  API concentration in drops: 5.02 mg/mL
Day 21A
  API concentration in drops: 4.92 mg/mL
Day 21P
  API concentration in drops: 4.95 mg/mL
Day 22A
  API concentration in drops: 4.98 mg/mL
Day 22P
  API concentration in drops: 4.93 mg/mL
Day 23A
  API concentration in drops: 4.96 mg/mL
Day 23P
  API concentration in drops: 4.97 mg/mL
Day 24A
  API concentration in drops: 4.94 mg/mL
Day 24P
  API concentration in drops: 4.96 mg/mL
Day 25A
  API concentration in drops: 4.90 mg/mL
Day 25P
  API concentration in drops: 4.93 mg/mL
Day 26A
  API concentration in drops: 4.97 mg/mL
Day 26P
  API concentration in drops: 4.96 mg/mL
Day 27A
  API concentration in drops: 4.96 mg/mL
Day 27P
  API concentration in drops: 4.97 mg/mL
Day 28A
  API concentration in drops: 4.93 mg/mL
Day 28P
  API concentration in drops: 4.95 mg/mL
Day 29A
  API concentration in drops: 4.90 mg/mL
Day 29P
  API concentration in drops: 4.93 mg/mL
Day 30A
  API concentration in drops: 4.98 mg/mL
Day 30P
  API concentration in drops: 4.97 mg/mL
  API concentration: 5.04 (mg/ml)
